Measured values: ChEMBL document CHEMBL4396910, “Endomorphin-2 analogs containing modified tyrosines: Biological and theoretical investigation of the influence on conformation and pharmacological profile” (Eur J Med Chem, 2019)

Key:
Mu-type opioid receptor [1] = target: T1, Mu-type opioid receptor (Homo sapiens, UniProt P35372); test: Displacement of [3H]DAMGO from human recombinant MOR expressed in CHO cell membranes incubated for 2 hrs by liquid scintillation counting method
[2] = target: Delta-type opioid receptor (Homo sapiens, UniProt P41143); test: Displacement of [3H]deltrophin-2 from human recombinant DOR expressed in CHO cell membranes incubated for 2 hrs by liquid scintillation counting method
Chain of Delta-type opioid receptor (P41143 whole entry): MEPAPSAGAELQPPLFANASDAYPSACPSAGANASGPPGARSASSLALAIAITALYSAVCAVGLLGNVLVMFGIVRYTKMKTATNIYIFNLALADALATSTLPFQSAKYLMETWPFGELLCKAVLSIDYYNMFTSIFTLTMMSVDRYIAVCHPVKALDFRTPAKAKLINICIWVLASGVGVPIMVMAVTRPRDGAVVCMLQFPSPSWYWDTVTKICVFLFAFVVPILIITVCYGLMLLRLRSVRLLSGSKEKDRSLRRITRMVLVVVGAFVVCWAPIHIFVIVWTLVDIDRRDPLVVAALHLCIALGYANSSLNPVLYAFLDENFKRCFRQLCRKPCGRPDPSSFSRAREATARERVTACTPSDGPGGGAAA

[3] = target: Kappa-type opioid receptor (Homo sapiens, UniProt P41145); test: Displacement of [3H]U-69593 from human recombinant KOR expressed in CHO cell membranes incubated for 2 hrs by liquid scintillation counting method
Chain of Kappa-type opioid receptor (P41145 whole entry): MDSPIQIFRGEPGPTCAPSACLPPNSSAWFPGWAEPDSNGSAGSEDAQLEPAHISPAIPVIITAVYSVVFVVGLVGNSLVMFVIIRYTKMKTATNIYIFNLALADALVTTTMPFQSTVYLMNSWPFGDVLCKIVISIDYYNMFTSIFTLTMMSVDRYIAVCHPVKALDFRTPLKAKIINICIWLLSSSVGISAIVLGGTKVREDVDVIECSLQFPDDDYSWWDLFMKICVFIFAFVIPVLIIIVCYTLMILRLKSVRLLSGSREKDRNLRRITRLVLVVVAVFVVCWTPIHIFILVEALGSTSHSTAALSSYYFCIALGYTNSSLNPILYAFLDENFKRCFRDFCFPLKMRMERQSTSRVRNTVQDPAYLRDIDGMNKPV

[4] = n-Octanol/water partition coefficient, log P of compound at 50 ug at pH 7.4 measured after 2 mins by RP-HPLC analysis; format: physicochemical; details: pH 7.4, 2 min
Mu-type opioid receptor [5] = target: T1, Mu-type opioid receptor; test: Agonist activity at human recombinant MOR expressed in CHO cells co-expressing C-terminally modified Galphaqi5 assessed as induction of calcium mobilization by Fluo-4AM dye-based fluorescence assay; format: functional, cell-based
[6] = Retention time of the compound by RP-HPLC analysis; format: physicochemical
Mu-type opioid receptor [7] = target: T1, Mu-type opioid receptor; test: Agonist activity at human recombinant MOR expressed in CHO cells co-expressing C-terminally modified Galphaqi5 assessed as induction of calcium mobilization by Fluo-4AM dye-based fluorescence assay relative to endomorphin-2; format: functional, cell-based
Mu-type opioid receptor [8] = target: T1, Mu-type opioid receptor; test: Potency index, ratio of endomorphin Ki to compound Ki for human recombinant MOR expressed in CHO cell membranes using [3H]DAMGO by radioligand binding assay

T1 sequence (P35372 whole entry): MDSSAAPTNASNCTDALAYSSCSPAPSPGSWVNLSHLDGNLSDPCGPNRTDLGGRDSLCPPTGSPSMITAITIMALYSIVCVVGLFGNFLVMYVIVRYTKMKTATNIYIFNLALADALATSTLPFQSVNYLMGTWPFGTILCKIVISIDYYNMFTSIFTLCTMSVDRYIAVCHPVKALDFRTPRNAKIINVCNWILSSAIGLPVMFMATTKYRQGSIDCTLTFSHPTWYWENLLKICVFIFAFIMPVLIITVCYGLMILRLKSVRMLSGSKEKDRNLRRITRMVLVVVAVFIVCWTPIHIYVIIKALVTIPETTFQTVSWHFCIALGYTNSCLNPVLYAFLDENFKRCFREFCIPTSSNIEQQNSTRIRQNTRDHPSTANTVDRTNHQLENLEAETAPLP

Row | SMILES | Ki (Mu-type opioid receptor [1]) | Ki [2] | Ki [3] | logP [4] | EC50 (Mu-type opioid receptor [5]) | Retention_time [6] | Intrinsic activity (Mu-type opioid receptor [7]) | Ratio Ki (Mu-type opioid receptor [8])
1 | COc1cc(C[C@H](N)C(=O)N2CCC[C@H]2C(=O)N[C@@H](Cc2ccccc2)C(=O)N[C@@H](Cc2ccccc2)C(N)=O)cc(OC)c1O | 4.38 nM | 10600 nM | 4480 nM | 0.67 | 7.94 nM | 14.83 min | 1.1 | 
2 | Cc1cc(C[C@H](N)C(=O)N2CCC[C@H]2C(=O)N[C@@H](Cc2ccccc2)C(=O)N[C@@H](Cc2ccccc2)C(N)=O)cc(C)c1O | 4.98 nM | 5260 nM | 4650 nM | 1.78 | 9.55 nM | 16.508 min | 1.04 | 
3 | Cc1cc(O)c(Cl)c(C)c1C[C@H](N)C(=O)N1CCC[C@H]1C(=O)N[C@@H](Cc1ccccc1)C(=O)N[C@@H](Cc1ccccc1)C(N)=O | 0.26 nM | 900 nM | 37.3 nM | 1.8 | 0.617 nM | 16.122 | 0.92 | 
4 | NC(=O)[C@H](Cc1ccccc1)NC(=O)[C@H](Cc1ccccc1)NC(=O)[C@@H]1CCCN1C(=O)[C@@H](N)Cc1ccc(O)cc1 [ENDOMORPHIN 2] |  |  |  | 1.13 |  |  |  | 
5 | NC(=O)[C@H](Cc1ccccc1)NC(=O)[C@H](Cc1ccccc1)NC(=O)[C@@H]1CCCN1C(=O)[C@@H](N)Cc1cccc(O)c1 | 18.9 nM | 12700 nM | 9150 nM | 1.37 | 44.7 nM | 15.168 min | 0.87 | 
6 | Cc1cc(O)cc(C)c1C[C@H](N)C(=O)N1CCC[C@H]1C(=O)N[C@@H](Cc1ccccc1)C(=O)N[C@@H](Cc1ccccc1)C(N)=O | 0.81 nM | 283 nM |  | 1.98 | 1.66 nM | 16.484 min | 0.91 | 4
